# Source: PMC6120666 (The EMBO Journal, 2018)
# Assays:
# Test in all cases: Drug affinity chromatography with c-ponatinib and LC-MS/MS (ponatinib interactome)
# Assay type in all cases: binding
# [1] = molecular target: T1, proteins of U2OS cell lysate (Homo sapiens, UniProt Q0ZGT2); conditions: NEXN, Nexilin
# T1 construct: Proteins enriched by c-ponatinib from U2OS cell lysate; endogenous in cells; host or cells: U2OS cell lysate
# Outline: (§1)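 U2OS cell lysate in NP-40 lysis buffer (2 mg protein per pulldown) was incubated with amine-derivatized NHS beads for 2 h at 4 °C. Bound proteins were washed, eluted with 100 mM formic acid, reduced, alkylated and trypsin-digested, then identified by nano-UPLC–MS/MS on Orbitrap instruments with a 60 min gradient.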
# [2] = molecular target: T2, proteins of U2OS cell lysate (Homo sapiens, UniProt Q9Y224); conditions: C14orf166, UPF0568 protein C14orf166
# T2 construct: Proteins enriched by c-ponatinib from U2OS cell lysate; endogenous in cells; host or cells: U2OS cell lysate
# T2 sequence (Q9Y224 whole entry): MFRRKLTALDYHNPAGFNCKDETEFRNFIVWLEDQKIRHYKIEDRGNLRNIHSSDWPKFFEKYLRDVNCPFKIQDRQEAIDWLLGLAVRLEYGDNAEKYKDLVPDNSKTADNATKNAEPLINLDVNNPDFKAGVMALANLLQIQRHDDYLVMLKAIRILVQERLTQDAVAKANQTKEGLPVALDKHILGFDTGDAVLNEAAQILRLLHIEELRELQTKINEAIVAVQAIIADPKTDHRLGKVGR
# Outline: as §1
# [3] = molecular target: T3, proteins of U2OS cell lysate (Homo sapiens, UniProt P09496); conditions: CLTA, Clathrin light chain A
# T3 construct: Proteins enriched by c-ponatinib from U2OS cell lysate; endogenous in cells; host or cells: U2OS cell lysate
# T3 sequence (P09496 whole entry): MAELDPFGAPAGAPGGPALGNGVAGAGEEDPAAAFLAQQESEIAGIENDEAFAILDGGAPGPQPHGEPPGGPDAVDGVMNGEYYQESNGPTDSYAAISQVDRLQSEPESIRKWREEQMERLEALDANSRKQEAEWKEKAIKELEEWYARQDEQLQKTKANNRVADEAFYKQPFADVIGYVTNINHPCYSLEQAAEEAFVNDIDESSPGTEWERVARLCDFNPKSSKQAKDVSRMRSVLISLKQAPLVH
# Outline: as §1
# [4] = molecular target: T4, proteins of U2OS cell lysate (Homo sapiens, UniProt P55060); conditions: CSE1L, Exportin-2
# T4 construct: Proteins enriched by c-ponatinib from U2OS cell lysate; endogenous in cells; host or cells: U2OS cell lysate
# Outline: as §1
# [5] = molecular target: T5, proteins of U2OS cell lysate (Homo sapiens, UniProt Q96MW5); conditions: COG8, Conserved oligomeric Golgi complex subunit 8
# T5 construct: Proteins enriched by c-ponatinib from U2OS cell lysate; endogenous in cells; host or cells: U2OS cell lysate
# T5 sequence (Q96MW5 whole entry): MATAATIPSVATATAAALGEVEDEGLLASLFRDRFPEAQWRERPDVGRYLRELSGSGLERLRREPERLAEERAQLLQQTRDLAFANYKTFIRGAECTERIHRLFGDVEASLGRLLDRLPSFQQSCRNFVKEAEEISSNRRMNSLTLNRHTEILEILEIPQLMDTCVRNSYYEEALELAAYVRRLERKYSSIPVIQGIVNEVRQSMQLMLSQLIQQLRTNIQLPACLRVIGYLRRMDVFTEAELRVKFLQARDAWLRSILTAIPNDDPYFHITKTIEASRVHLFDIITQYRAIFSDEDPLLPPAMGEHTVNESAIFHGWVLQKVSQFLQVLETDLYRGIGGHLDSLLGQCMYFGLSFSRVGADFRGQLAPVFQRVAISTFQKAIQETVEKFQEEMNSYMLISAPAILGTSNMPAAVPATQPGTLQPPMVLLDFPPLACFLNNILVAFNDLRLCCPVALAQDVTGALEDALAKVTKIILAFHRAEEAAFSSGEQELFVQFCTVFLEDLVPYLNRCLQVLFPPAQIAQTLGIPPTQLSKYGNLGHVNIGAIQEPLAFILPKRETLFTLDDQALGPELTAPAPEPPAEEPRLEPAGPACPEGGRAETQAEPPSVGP
# Outline: as §1
# [6] = molecular target: T6, proteins of U2OS cell lysate (Homo sapiens, UniProt Q9Y4K4); conditions: MAP4K5, Mitogen-activated protein kinase kinase kinase kinase 5
# T6 construct: Proteins enriched by c-ponatinib from U2OS cell lysate; endogenous in cells; host or cells: U2OS cell lysate
# T6 sequence (Q9Y4K4 whole entry): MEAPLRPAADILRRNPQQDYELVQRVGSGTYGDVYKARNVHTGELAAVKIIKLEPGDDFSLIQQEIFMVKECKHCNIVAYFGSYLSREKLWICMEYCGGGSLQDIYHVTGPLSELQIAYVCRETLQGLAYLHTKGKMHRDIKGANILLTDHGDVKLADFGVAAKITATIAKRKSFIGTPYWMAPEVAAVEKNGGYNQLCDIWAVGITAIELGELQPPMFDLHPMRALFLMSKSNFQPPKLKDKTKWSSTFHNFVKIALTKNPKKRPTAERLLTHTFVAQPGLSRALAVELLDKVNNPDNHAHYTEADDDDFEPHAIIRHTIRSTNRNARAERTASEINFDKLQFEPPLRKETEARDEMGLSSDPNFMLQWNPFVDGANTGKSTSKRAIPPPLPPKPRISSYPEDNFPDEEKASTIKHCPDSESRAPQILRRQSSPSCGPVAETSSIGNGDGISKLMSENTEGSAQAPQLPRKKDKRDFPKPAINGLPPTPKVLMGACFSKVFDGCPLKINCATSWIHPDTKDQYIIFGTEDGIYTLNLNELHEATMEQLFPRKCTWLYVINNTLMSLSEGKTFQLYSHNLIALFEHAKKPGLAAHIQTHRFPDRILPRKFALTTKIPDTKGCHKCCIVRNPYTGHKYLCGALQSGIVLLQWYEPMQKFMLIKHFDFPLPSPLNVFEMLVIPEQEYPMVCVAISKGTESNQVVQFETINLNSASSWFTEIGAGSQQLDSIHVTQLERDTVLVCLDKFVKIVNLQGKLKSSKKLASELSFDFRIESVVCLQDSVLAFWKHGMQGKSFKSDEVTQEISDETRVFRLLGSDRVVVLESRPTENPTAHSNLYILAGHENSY
# Outline: as §1
# [7] = molecular target: T7, proteins of U2OS cell lysate (Homo sapiens, UniProt P68371); conditions: TUBB4B;TUBB8, Tubulin beta-4B chain
# T7 construct: Proteins enriched by c-ponatinib from U2OS cell lysate; endogenous in cells; host or cells: U2OS cell lysate
# Outline: as §1
# [8] = molecular target: T8, proteins of U2OS cell lysate (Homo sapiens, UniProt Q9UFG5); conditions: C19orf25, UPF0449 protein C19orf25
# T8 construct: Proteins enriched by c-ponatinib from U2OS cell lysate; endogenous in cells; host or cells: U2OS cell lysate
# T8 sequence (Q9UFG5 whole entry): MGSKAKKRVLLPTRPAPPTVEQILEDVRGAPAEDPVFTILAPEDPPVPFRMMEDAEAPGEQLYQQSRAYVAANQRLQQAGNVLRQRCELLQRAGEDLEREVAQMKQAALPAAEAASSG
# Outline: as §1
# [9] = molecular target: T9, proteins of U2OS cell lysate (Homo sapiens, UniProt P23528); conditions: CFL1, Cofilin-1
# T9 construct: Proteins enriched by c-ponatinib from U2OS cell lysate; endogenous in cells; host or cells: U2OS cell lysate
# T9 sequence (P23528 whole entry): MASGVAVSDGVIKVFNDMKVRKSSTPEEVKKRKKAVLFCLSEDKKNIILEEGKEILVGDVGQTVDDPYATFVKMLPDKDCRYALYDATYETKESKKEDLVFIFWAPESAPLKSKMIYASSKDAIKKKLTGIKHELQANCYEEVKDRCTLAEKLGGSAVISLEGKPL
# Outline: as §1
# [10] = molecular target: T10, proteins of U2OS cell lysate (Homo sapiens, UniProt P35659); conditions: DEK, Protein DEK
# T10 construct: Proteins enriched by c-ponatinib from U2OS cell lysate; endogenous in cells; host or cells: U2OS cell lysate
# T10 sequence (P35659 whole entry): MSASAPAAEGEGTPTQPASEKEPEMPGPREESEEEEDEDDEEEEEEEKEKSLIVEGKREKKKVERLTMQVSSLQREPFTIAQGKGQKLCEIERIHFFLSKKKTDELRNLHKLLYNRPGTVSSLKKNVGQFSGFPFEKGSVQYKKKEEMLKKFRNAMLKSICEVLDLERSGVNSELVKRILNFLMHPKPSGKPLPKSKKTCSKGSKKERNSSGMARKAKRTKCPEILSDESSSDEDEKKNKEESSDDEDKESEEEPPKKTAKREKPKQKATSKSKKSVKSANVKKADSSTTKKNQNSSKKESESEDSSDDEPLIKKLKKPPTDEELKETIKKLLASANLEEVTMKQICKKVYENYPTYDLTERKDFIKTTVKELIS
# Outline: as §1
# [11] = molecular target: T11, proteins of U2OS cell lysate (Homo sapiens, UniProt Q7L014); conditions: DDX46, Probable ATP-dependent RNA helicase DDX46
# T11 construct: Proteins enriched by c-ponatinib from U2OS cell lysate; endogenous in cells; host or cells: U2OS cell lysate
# Outline: as §1
# [12] = molecular target: T12, proteins of U2OS cell lysate (Homo sapiens, UniProt Q6PHR2); conditions: ULK3, Serine/threonine-protein kinase ULK3
# T12 construct: Proteins enriched by c-ponatinib from U2OS cell lysate; endogenous in cells; host or cells: U2OS cell lysate
# T12 sequence (Q6PHR2 whole entry): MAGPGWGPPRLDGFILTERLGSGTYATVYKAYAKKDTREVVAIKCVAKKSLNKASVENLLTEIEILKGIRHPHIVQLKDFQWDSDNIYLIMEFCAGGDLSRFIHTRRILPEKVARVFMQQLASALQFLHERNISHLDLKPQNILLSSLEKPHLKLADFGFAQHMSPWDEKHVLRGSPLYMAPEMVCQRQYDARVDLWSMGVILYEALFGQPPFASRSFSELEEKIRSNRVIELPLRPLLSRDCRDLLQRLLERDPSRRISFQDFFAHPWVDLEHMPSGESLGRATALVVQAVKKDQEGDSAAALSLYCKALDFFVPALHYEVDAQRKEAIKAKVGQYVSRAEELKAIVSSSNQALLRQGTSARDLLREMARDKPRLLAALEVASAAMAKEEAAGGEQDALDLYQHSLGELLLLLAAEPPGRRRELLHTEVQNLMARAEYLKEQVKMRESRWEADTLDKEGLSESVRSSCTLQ
# Outline: as §1
# [13] = molecular target: T13, proteins of U2OS cell lysate (Homo sapiens, UniProt P07355); conditions: ANXA2;ANXA2P2, Annexin A2
# T13 construct: Proteins enriched by c-ponatinib from U2OS cell lysate; endogenous in cells; host or cells: U2OS cell lysate
# Outline: as §1
# [14] = molecular target: T14, proteins of U2OS cell lysate (Homo sapiens, UniProt Q09028); conditions: RBBP4;RBBP7, Histone-binding protein RBBP4
# T14 construct: Proteins enriched by c-ponatinib from U2OS cell lysate; endogenous in cells; host or cells: U2OS cell lysate
# Outline: as §1
# [15] = molecular target: T15, proteins of U2OS cell lysate (Homo sapiens, UniProt P38646); conditions: HSPA9, Stress-70 protein, mitochondrial
# T15 construct: Proteins enriched by c-ponatinib from U2OS cell lysate; endogenous in cells; host or cells: U2OS cell lysate
# T15 sequence (P38646 47-679): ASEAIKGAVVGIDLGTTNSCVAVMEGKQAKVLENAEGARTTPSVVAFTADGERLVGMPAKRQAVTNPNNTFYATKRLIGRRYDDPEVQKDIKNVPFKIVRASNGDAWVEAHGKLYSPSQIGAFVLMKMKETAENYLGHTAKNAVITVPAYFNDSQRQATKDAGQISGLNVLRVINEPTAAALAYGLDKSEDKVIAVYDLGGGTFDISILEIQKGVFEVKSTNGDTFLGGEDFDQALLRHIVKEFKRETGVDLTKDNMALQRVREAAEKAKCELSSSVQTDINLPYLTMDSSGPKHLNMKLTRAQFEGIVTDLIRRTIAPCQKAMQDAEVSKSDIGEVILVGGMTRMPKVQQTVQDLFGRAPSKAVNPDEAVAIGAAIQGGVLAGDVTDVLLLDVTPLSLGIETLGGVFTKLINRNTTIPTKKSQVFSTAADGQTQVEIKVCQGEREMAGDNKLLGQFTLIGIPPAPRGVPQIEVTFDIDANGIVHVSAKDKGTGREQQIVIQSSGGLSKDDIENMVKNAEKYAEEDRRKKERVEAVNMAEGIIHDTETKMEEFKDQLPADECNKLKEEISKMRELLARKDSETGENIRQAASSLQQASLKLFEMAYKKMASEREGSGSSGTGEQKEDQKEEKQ
# Outline: as §1
# [16] = molecular target: T16, proteins of U2OS cell lysate (Homo sapiens, UniProt Q00536); conditions: CDK16, Cyclin-dependent kinase 16
# T16 construct: Proteins enriched by c-ponatinib from U2OS cell lysate; endogenous in cells; host or cells: U2OS cell lysate
# T16 sequence (Q00536 whole entry): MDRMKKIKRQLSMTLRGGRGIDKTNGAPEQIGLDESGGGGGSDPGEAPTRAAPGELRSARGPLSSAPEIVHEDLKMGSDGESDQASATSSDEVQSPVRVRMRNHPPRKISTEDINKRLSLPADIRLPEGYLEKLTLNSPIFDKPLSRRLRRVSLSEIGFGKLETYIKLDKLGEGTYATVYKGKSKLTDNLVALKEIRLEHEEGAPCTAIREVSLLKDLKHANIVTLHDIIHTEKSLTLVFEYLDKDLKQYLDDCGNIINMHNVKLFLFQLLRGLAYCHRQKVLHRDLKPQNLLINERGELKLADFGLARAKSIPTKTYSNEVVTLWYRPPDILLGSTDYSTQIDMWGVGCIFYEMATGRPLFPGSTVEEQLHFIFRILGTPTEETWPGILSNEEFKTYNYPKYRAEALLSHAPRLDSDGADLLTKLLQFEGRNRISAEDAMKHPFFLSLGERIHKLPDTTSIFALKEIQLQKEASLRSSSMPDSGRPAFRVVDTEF
# Outline: as §1
# [17] = molecular target: T17, proteins of U2OS cell lysate (Homo sapiens, UniProt P46783); conditions: RPS10;RPS10P5, 40S ribosomal protein S10
# T17 construct: Proteins enriched by c-ponatinib from U2OS cell lysate; endogenous in cells; host or cells: U2OS cell lysate
# Outline: as §1
# [18] = molecular target: T18, proteins of U2OS cell lysate (Homo sapiens, UniProt Q6PJG6); conditions: BRAT1, BRCA1-associated ATM activator 1
# T18 construct: Proteins enriched by c-ponatinib from U2OS cell lysate; endogenous in cells; host or cells: U2OS cell lysate
# Outline: as §1
# [19] = molecular target: T19, proteins of U2OS cell lysate (Homo sapiens, UniProt P10606); conditions: captured protein COX5B, Rank 183
# T19 construct: Proteins enriched by c-ponatinib from U2OS cell lysate; endogenous in cells; host or cells: U2OS cell lysate
# Outline: as §1
# T1 sequence (Q0ZGT2 whole entry): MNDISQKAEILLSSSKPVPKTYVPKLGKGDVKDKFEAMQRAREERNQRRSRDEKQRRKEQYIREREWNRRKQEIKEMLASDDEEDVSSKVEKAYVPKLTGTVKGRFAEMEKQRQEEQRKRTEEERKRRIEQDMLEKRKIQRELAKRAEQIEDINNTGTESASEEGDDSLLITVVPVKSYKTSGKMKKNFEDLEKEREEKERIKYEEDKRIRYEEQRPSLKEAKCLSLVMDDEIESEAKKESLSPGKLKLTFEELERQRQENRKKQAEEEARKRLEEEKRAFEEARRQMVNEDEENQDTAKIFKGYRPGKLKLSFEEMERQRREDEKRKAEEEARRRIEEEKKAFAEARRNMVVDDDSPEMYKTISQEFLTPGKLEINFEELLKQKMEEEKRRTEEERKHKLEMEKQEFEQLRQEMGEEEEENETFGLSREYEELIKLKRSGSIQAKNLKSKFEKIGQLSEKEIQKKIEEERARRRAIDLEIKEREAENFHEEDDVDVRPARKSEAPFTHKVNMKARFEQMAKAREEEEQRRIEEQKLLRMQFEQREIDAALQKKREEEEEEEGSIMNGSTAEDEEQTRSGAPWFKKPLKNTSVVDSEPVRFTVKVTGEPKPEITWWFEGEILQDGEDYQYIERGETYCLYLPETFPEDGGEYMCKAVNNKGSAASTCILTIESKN
smiles,measurement,setting,value
Cc1ccc(C(=O)Nc2ccc(CN3CCN(C)CC3)c(C(F)(F)F)c2)cc1C#Cc1cnc2cccnn12 [PON],Average LFQ PON_WT,[1],20.2843
same,Average LFQ PON_WT,[2],20.4304
same,Average LFQ PON_WT,[3],24.9334
same,Average LFQ PON_WT,[4],25.3839
same,Average LFQ PON_WT,[5],20.9378
same,Average LFQ PON_WT,[6],19.9263
same,Average LFQ PON_WT,[7],26.1041
same,Average LFQ PON_WT,[8],20.1092
same,Average LFQ PON_WT,[9],19.4794
same,Average LFQ PON_WT,[10],19.6049
same,Average LFQ PON_WT,[11],21.404
same,Average LFQ PON_WT,[12],24.6179
same,Average LFQ PON_WT,[13],23.7363
same,Average LFQ PON_WT,[14],21.1647
same,Average LFQ PON_WT,[15],24.6608
same,Average LFQ PON_WT,[16],24.4833
same,Average LFQ PON_WT,[17],21.6692
same,Average LFQ PON_WT,[18],19.9568
"Cc1ccc(C(=O)Nc2ccc(CN3CCN(CCCN)CC3)c(C(F)(F)F)c2)cc1C#Cc1cnc2cccnn12 [c-ponatinib, reference compound]",Average LFQ intensity,[19],22.1378
